The source of these data is patent publication US10821115B2, “Compounds that inhibit Mcl-1 protein” (priority 2017, dated 2020).

pIC50: −log10 of the molar value. Where two headings read alike, the source gives them in different places.

For assay [1], the system named is human multiple myeloma cell line, OPM-2. Briefly: Cell viability assay (OPM-2 10 FBS), CellTiter-Glo. Format: cell-based. The method, boiled down: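 Cells were seeded at 3000 cells/well in RPMI 1640 with 10% FBS and exposed to serially diluted compounds for 16 h at 37 °C, 5% CO2.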
For orientation: In ATP-based viability assays light output follows the ATP content of the culture.

For assay [2], the target named is recombinant human Mcl-1 (residues 171-327) / Bim interaction (Homo sapiens (Human), UniProt Q07820). Briefly: biochemical. Format: binding. The following applies: read-out: Mcl-1 HTRF IC50. Background: In TR-FRET formats the signal depends on donor and acceptor labels being close together.
Setting [3] is: Homo sapiens, OPM-2, 16 h, read-out: OPM-2 10% FBS IC50 IP, OPM-2 cells, 10% FBS, 16 h, CellTiter-Glo.
Where [4] appears, read: TR-FRET, Mcl-1(171-327) / biotin-Bim (51-76).
The mark [5] stands for this setting: Homo sapiens, OPM-2, 16 h, read-out: OPM-2 10% FBS IC50 IP, OPM-2 cells, 10% FBS, 16 h incubation.
Setting [6] is: 0.1 nM Mcl-1(171-327), 0.05 nM biotin-Bim (51-76).
Where [7] appears, read: read-out: OPM-2 10% FBS IC50 IP, OPM-2 cells, 10% FBS, 16 h, CellTiter-Glo.

Sequence of recombinant human Mcl-1 (residues 171-327) / Bim interaction (Q07820 171-327): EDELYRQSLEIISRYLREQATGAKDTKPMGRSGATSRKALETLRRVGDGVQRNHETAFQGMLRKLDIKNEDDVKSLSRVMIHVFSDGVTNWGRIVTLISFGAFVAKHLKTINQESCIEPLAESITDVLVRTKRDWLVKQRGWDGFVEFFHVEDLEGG

Regarding `COCCOC[C@]1(O)CCC[C@H](C)[C@@H](C)S(=O)(=O)NC(=O)c2ccc3c(c2)N(C[C@@H]2CC[C@H]21)C[C@@]1(CCCc2cc(Cl)ccc21)CO3` [Example 100192, (1S,3′R,6′R,7′S,11′S,12′R)-6-chloro-7′-hydroxy-7′-((2-methoxyethoxy)methyl)-11′,12′-dimethyl-3,4-dihydro-2H,15′H-spiro[naphthalene-1,22′-[20]oxa[13]thia[1,14]diazatetracyclo [14.7.2.0~3,6~.0~19,24~]pentacosa[16,18,24]trien]-15′-one 13′,13′-dioxide], the values for the pIC50 in assay [1] (setting [3]) and in assay [2] (setting [4]) were 6.83 and 9.72, respectively.
Take `CO[C@]1(CN2CCCCC2)/C=C/C[C@H](C)[C@@H](C)S(=O)(=O)NC(=O)c2ccc3c(c2)N(C[C@@H]2CC[C@H]21)C[C@@]1(CCCc2cc(Cl)ccc21)CO3` [Example 74, (1S,3′R,6′R,7′R,8′E,11′S,12′R)-6-chloro-7′-methoxy-11′,12′-dimethyl-7′-(1-piperidinylmethyl)-3,4-dihydro-2H,15′H-spiro[naphthalene-1,22′-[20]oxa[13]thia[1,14]diazatetracyclo [14.7.2.0~3,6~.0~19,24~]pentacosa[8,16,18,24]tetraen]-15′-one 13′,13′-dioxide]: the pIC50 in assay [1] (setting [5]) was 5.47; in assay [2] (setting [6]), 8.64.
For the compound `COCCN(C)C1=NO[C@@]2(CCC[C@H](C)[C@@H](C)S(=O)(=O)NC(=O)c3ccc4c(c3)N(C[C@@H]3CC[C@H]32)C[C@@]2(CCCc3cc(Cl)ccc32)CO4)C1` [Example 100155, (1S,3′R,6′R,7′S,11′S,12′R)-6-chloro-3″- ((2-methoxyethyl)(methyl)amino)-11′,12′-dimethyl-3,4-dihydro-2H,4″H,15′H-dispiro[naphthalene-1,22′-[20]oxa[13]thia[1,14]diazatetracyclo [14.7.2.0~3,6~.0~19,24~]pentacosa[16,18,24]triene-7′,5″-[1,2]oxazol]-15′-one 13′,13′-dioxide], the pIC50 in assay [1] (setting [3]) is 6.48; in assay [2] (setting [4]) it was 9.65.
Take `C[C@@H]1[C@@H](C)CCC[C@@]2(C[C@H]2C(=O)N2CCN3CCOC[C@H]3C2)[C@@H]2CC[C@H]2CN2C[C@@]3(CCCc4cc(Cl)ccc43)COc3ccc(cc32)C(=O)NS1(=O)=O` [Example 100303, (1R,2R,3′R,6′R,11′S,12′R,22′S)-6″-chloro-2-((9aR)-hexahydropyrazino[2,1-c][1,4]oxazin-8(1H)-ylcarbonyl)-11′,12′-dimethyl-3″,4″-dihydro-2″H,15′H-dispiro[cyclopropane-1,7′-[20]oxa[13]thia[1,14]diazatetracyclo [14.7.2.0~3,6~.0~19,24~]pentacosa[16,18,24]triene-22′,1″-naphthalen]-15′-one 13′,13′-dioxide]: the pIC50 in assay [1] (setting [7]) is 5.13; in assay [2] (setting [4]), 8.44.
As for `CO[C@@]1(CN2CCN(c3ccc(B(O)O)c(C(C)=O)c3)CC2)/C=C/C[C@H](C)[C@@H](C)S(=O)(=O)NC(=O)c2ccc3c(c2)N(C[C@@H]2CC[C@H]21)C[C@@]1(CCCc2cc(Cl)ccc21)CO3` [Example 296, (2-acetyl-4-(4-(((1S,3′R,6′R,7′S,8′E,11′S, 12′R)-6-chloro-7′-methoxy-11′,12′-dimethyl-13′,13′-dioxido-15′-oxo-3,4-dihydro-2H-spiro[naphthalene-1,22′-[20]oxa[13]thia[1,14]diazatetracyclo [14.7.2.0~3,6~.0~19,24~]pentacosa[8,16,18,24]tetraen]-7′-yl)methyl)-1-piperazinyl)phenyl)boronic acid], the values for the pIC50 in assay [1] (setting [5]) and in assay [2] (setting [6]) were 5.88 and 9.68, respectively.
`CO[C@@]1(CC(=O)[C@H](C)CN(C)C)/C=C/C[C@H](C)[C@@H](C)S(=O)(=O)NC(=O)c2ccc3c(c2)N(C[C@@H]2CC[C@H]21)C[C@@]1(CCCc2cc(Cl)ccc21)CO3` (single isomer, unassigned) [Example 100478]: the pIC50 in assay [1] (setting [3]) is 5.39; in assay [2] (setting [4]) it was 8.46.
As to `CO[C@@]1(CN2CCCCC2)/C=C/C[C@H](C)[C@@H](C)S(=O)(=O)NC(=O)c2ccc3c(c2)N(C[C@@H]2CC[C@H]21)C[C@@]1(CCCc2cc(Cl)ccc21)CO3` [Example 75, (1S,3′R,6′R,7′S,8′E,11′S,12′R)-6-chloro-7′-methoxy-11′,12′-dimethyl-7′-(1-piperidinylmethyl)-3,4-dihydro-2H,15′H-spiro[naphthalene-1,22′-[20]oxa[13]thia[1,14]diazatetracyclo [14.7.2.0~3,6~.0~19,24~]pentacosa[8,16,18,24]tetraen]-15′-one 13′,13′-dioxide], the results for the negative logarithm of the IC50 (pIC50) in assay [1] (setting [5]) and in assay [2] (setting [6]) were 5.79 and 8.69, respectively.
Regarding `COCCOC[C@]1(O)/C=C/C[C@H](C)[C@@H](C)S(=O)(=O)NC(=O)c2ccc3c(c2)N(C[C@@H]2CC[C@H]21)C[C@@]1(CCCc2cc(Cl)ccc21)CO3` [Example 100444, (1S,3′R,6′R,7′S,8′E,11′S,12′R)-6-chloro-7′-hydroxy-7′-((2-methoxyethoxy)methyl)-11′,12′-dimethyl-3,4-dihydro-2H,15′H-spiro[naphthalene-1,22′-[20]oxa[13]thia[1,14]diazatetracyclo [14.7.2.0~3,6~.0~19,24~]pentacosa[8,16,18,24]tetraen]-15′-one 13′,13′-dioxide], the pIC50 in assay [1] (setting [3]) is 6.19; in assay [2] (setting [4]), 10.01.
Consider `C[C@H](C(=O)O)[C@@]1(O)/C=C/C[C@H](C)[C@@H](C)S(=O)(=O)NC(=O)c2ccc3c(c2)N(C[C@@H]2CC[C@H]21)C[C@@]1(CCCc2cc(Cl)ccc21)CO3` (single isomer, unassigned) [Example 100120], for which the values for the pIC50 in assay [1] (setting [7]) and in assay [2] (setting [4]) were 6.20 and 10.17, respectively.
Turning to `CO[C@]1(CN2CCOCC2)/C=C/C[C@H](C)[C@@H](C)S(=O)(=O)NC(=O)c2ccc3c(c2)N(C[C@@H]2CC[C@H]21)C[C@@]1(CCCc2cc(Cl)ccc21)CO3` [Example 53, (1S,3′R,6′R,7′R,8′E,11′S,12′R)-6-chloro-7′-methoxy-11′,12′-dimethyl-7′-(4-morpholinylmethyl)-3,4-dihydro-2H,15′H-spiro[naphthalene-1,22′-[20]oxa[13]thia[1,14]diazatetracyclo [14.7.2.0~3,6~.0~19,24~]pentacosa[8,16,18,24]tetraen]-15′-one 13′,13′-dioxide], the pIC50 was 6.54 in assay [1] (setting [5]) and 9.47 in assay [2] (setting [6]).
In the case of `CC(C)CO[C@@]1(CN2CCN3CCCC[C@@H]3C2)/C=C/C[C@H](C)[C@@H](C)S(=O)(=O)NC(=O)c2ccc3c(c2)N(C[C@@H]2CC[C@H]21)C[C@@]1(CCCc2cc(Cl)ccc21)CO3` [Example 350, (15,3′R,6′R,7′S,8′E,11′S,12′R)-6-chloro-11′,12′-dimethyl-7′-(2-methylpropoxy)-7′-((9aR)-octahydro-2H-pyrido[1,2-a]pyrazin-2-ylmethyl)-3,4-dihydro-2H,15′H-spiro[naphthalene-1,22′-[20]oxa[13]thia[1,14]diazatetracyclo [14.7.2.0~3,6~.0~19,24~]pentacosa[8,16,18,24]tetraen]-15′-one 13′,13′-dioxide], the pIC50 in assay [1] (setting [5]) is less than 4.48; in assay [2] (setting [6]) it was 7.91.
`COC[C@@H]1[C@@H](C)C/C=C/[C@](CN2CCN(C(C)C)CC2)(OC)[C@@H]2CC[C@H]2CN2C[C@@]3(CCCc4cc(Cl)ccc43)COc3ccc(cc32)C(=O)NS1(=O)=O` [Example 173]: the pIC50 in assay [1] (setting [5]) was 6.49; in assay [2] (setting [6]), 9.76.
Take `CO[C@@]1(CC(=O)N2CCN(C)C[C@H]2C)/C=C/C[C@H](C)[C@@H](C)S(=O)(=O)NC(=O)c2ccc3c(c2)N(C[C@@H]2CC[C@H]21)C[C@@]1(CCCc2cc(Cl)ccc21)CO3` [Example 100417, (1S,3′R,6′R,7′S,8′E,11′S,12′R)-6-chloro-7′-(2-((2R)-2,4-dimethyl-1-piperazinyl)-2-oxoethyl)-7′-methoxy-11′,12′-dimethyl-3,4-dihydro-2H,15′H-spiro[naphthalene-1,22′-[20]oxa[13]thia[1,14]diazatetracyclo [14.7.2.0~3,6~.0~19,24~]pentacosa[8,16,18,24]tetraen]-15′-one 13′,13′-dioxide]: the pIC50 in assay [1] (setting [3]) is 6.42; in assay [2] (setting [4]), 9.46.
Regarding `CCC[C@@]1(O)/C=C/C[C@H](C)[C@@H](C)S(=O)(=O)NC(=O)c2ccc3c(c2)N(C[C@@H]2CC[C@H]21)C[C@@]1(CCCc2cc(Cl)ccc21)CO3` [Example 100209, (1S,3′R,6′R,7′R,8′E,11′S,12′R)-6-chloro-7′-hydroxy-11′,12′-dimethyl-7′-propyl-3,4-dihydro-2H,15′H-spiro[naphthalene-1,22′-[20]oxa[13]thia[1,14]diazatetracyclo [14.7.2.0~3,6~.0~19,24~]pentacosa[8,16,18,24]tetraen]-15′-one 13′,13′-dioxide], the pIC50 in assay [1] (setting [3]) is 5.47; in assay [2] it was 8.57.
For the compound `CO[C@@]1(CN2CCN(CC3OCCO3)CC2)/C=C/C[C@H](C)[C@@H](C)S(=O)(=O)NC(=O)c2ccc3c(c2)N(C[C@@H]2CC[C@H]21)C[C@@]1(CCCc2cc(Cl)ccc21)CO3` [Example 309, (1S,3′R,6′R,7′S,8′E,11′S,12′R)-6-chloro-7′-((4-(1,3-dioxolan-2-ylmethyl)-1-piperazinyl)methyl)-7′-methoxy-11′,12′-dimethyl-3,4-dihydro-2H,15′H-spiro[naphthalene-1,22′-[20]oxa[13]thia[1,14]diazatetracyclo [14.7.2.0~3,6~.0~19,24~]pentacosa[8,16,18,24]tetraen]-15′-one 13′,13′-dioxide], the pIC50 was 7.19 in assay [1] (setting [5]) and 9.67 in assay [2] (setting [6]).

What is called pIC50 is the IC50 on a negative log10 scale, so that one unit is a factor of ten.
